≈ marks a conversion by molar mass, not a printed value. Where “and” joins values, the source holds several entries; their conditions need not be identical. Equal entries are not always repeated. Where two headings read alike, the source gives them in different places.
Key:
[1] = test system: S. pneumoniae isolates; test: Disk diffusion susceptibility (CLSI/EUCAST), Example 5; format: cell-based, Streptococcus pneumoniae
Procedure, shortened: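 Susceptibility to 12 antimicrobials was categorised (S/I/R) using CLSI breakpoints from zones of complete inhibition, read thrice to the nearest millimetre with the mode taken. Incubation was 16–24 h, 37 °C, 5% CO2.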

[2] = control strain Enterococcus faecalis ATCC 29212; cited from earlier work
[3] = test system: S. aureus clinical isolates (MRSA and MSSA); test: Minimum bactericidal concentration (MBC), Example 4; format: cell-based, Staphylococcus aureus; details: for MBC: Staphylococcus aureus
From the text: The MBC was defined as the lowest drug concentration at which 99.95% of the original inoculum was eliminated.

[4] = test system: S. pneumoniae strain D39; test: MBC time kill studies (relative MBC at time points); format: cell-based, Streptococcus pneumoniae; details: within 5 h
From the text: MBC kill kinetics assays involved the preparation of three 96 well microtitre trays.

[5] = Visual analysis of solubility in diluents and media, Example 5; format: physicochemical
[6] = Bioassay ranking of the analogues tested; details: M + R (MRSA and VRE combined)
[7] = test system: S. aureus MK01 and KC01; test: MIC, Example 8; format: cell-based; details: Staphylococcus aureus, MK01ANDKC01, S. aureus KC01
From the text: Two Staphylococcus aureus isolates were used in the following experiments; S. aureus MK01 a human skin strain, and S. aureus KC01 an equine skin strain. These isolates were identified by Gram stain and biochemical methods, including the Remel Staphaurex commercial kit. […] As this isolate has previously been speciated, it was not subjected to further testing, except for observation of pure, characteristic growth on blood agar.

[8] = test system: non-MRSA S. aureus MK01 and KC01; test: MBC (CLSI methodology), Example 8; format: cell-based, Staphylococcus aureus
[9] = test system: S. aureus KC01; test: Kill kinetics assay, Example 8; format: cell-based, Staphylococcus aureus
Experimental: (§1) S. aureus KC01 and E. faecalis USA01, not determined to be MRSA or VRE, respectively, were grown overnight on Columbia SBA at 37° C. A few colonies of bacteria were then suspended in CAMHB (cation-adjusted Mueller Hinton broth) and adjusted to OD600 of 0.08 to 0.10. The bacterial suspension was diluted 1:10. […] The tubes were incubated at 37° C., with constant shaking. In order to determine the number of viable bacteria present at various time points, a 100 μL aliquot was removed from each tube and diluted. Then, 100 μL of each dilution were spread onto colony count agar, in duplicate, and incubated for 48 h at 37° C. After 24 h the numbers of colonies present on each plate were counted and therefore the number of viable bacteria present in the original suspension enumerated. Plates were re-checked after 48 hours.

[10] = test system: E. faecalis USA01; test: Kill kinetics assay, Example 8; format: cell-based, Enterococcus faecalis
Experimental: as §1

SMILES: CC1(C)S[C@@H]2[C@H](NC(=O)[C@H](N)c3ccccc3)C(=O)N2[C@H]1C(=O)O [Ampicillin]
- disk diffusion zone diameter ([1]; A66.1): 37 mm
- disk diffusion zone diameter ([1]; D39): 37 mm
- disk diffusion zone diameter ([1]; EF3030): 38 mm
- disk diffusion zone diameter ([1]; L82016): 41 mm
- disk diffusion zone diameter ([1]; P9): 33 mm
- disk diffusion zone diameter ([1]; P21): 40 mm
- disk diffusion zone diameter ([1]; TIGR4): 37 mm
- disk diffusion zone diameter ([1]; WCH16): 41 mm
- disk diffusion zone diameter ([1]; WCH43): 36 mm
- disk diffusion zone diameter ([1]; WCH46): 37 mm
- disk diffusion zone diameter ([1]; WCH57): 43 mm
- disk diffusion zone diameter ([1]; WCH77): 43 mm
- disk diffusion zone diameter ([1]; WCH86): 38 mm
- disk diffusion zone diameter ([1]; WCH89): 38 mm
- disk diffusion zone diameter ([1]; WCH92): 38 mm
- disk diffusion zone diameter ([1]; WCH137): 40 mm
- disk diffusion zone diameter ([1]; WCH158): 42 mm
- disk diffusion zone diameter ([1]; WCH184): 33 mm
- disk diffusion zone diameter ([1]; WCH211): 39 mm
- disk diffusion zone diameter ([1]; WU2): 38 mm
- Resistance status to Ampicillin ([1]; isolate A66.1): Sensitive
- Resistance status to Ampicillin ([1]; isolate D39): Sensitive
- Resistance status to Ampicillin ([1]; isolate P21): Sensitive
- Resistance status to Ampicillin ([1]; isolate WCH57): Sensitive
- Resistance status to Ampicillin ([1]; isolate WCH158): Sensitive
- Resistance status to Ampicillin ([1]; isolate WU-2): Sensitive
- Acceptable MIC range for Ampicillin [2]: 0.5 to 2 µg/mL

SMILES: N=C(N/N=C/c1ccc(Cl)cc1)N/N=C/c1ccc(Cl)cc1 [NCL812, 1,3-bis[(E)-(4-chlorophenyl)methyleneamino]guanidine]
- S. aureus isolates with MBC equivalent to the MIC ([3]; 30 isolates): 93.33%
- MBCrange ([3]; CA-MRSA (n = 10)): 2 to 4 µg/mL
- MBCrange ([3]; HA-MRSA (n = 10)): 4 to 8 µg/mL
- MBCrange ([3]; Methicillin-susceptible staphylococci (n = 10)): 2 to 8 µg/mL
- MBC ([3]; CA-MRSA (n = 10), read-out: MBC50): 4 µg/mL (≈ 12 µM)
- MBC ([3]; CA-MRSA (n = 10), read-out: MBC90): 4 µg/mL (≈ 12 µM)
- MBC ([3]; HA-MRSA (n = 10), read-out: MBC50): 8 µg/mL (≈ 23.9 µM)
- MBC ([3]; HA-MRSA (n = 10), read-out: MBC90): 8 µg/mL (≈ 23.9 µM)
- MBC ([3]; Methicillin-susceptible staphylococci (n = 10), read-out: MBC50): 4 µg/mL (≈ 12 µM)
- MBC ([3]; Methicillin-susceptible staphylococci (n = 10), read-out: MBC90): 8 µg/mL (≈ 23.9 µM)
- MBC ([3]; Total bacterial isolates (n = 30), read-out: MBC50): 4 µg/mL (≈ 12 µM)
- MBC ([3]; Total bacterial isolates (n = 30), read-out: MBC90): 8 µg/mL (≈ 23.9 µM)
- MBCrange ([3]; Total bacterial isolates (n = 30)): 2 to 8 µg/mL
- decrease in MBC [4]: ~3 fold
- Visual analysis of solubility ([5]; Diluent CAMHB): Turbid
- Visual analysis of solubility ([5]; Diluent DMSO): Transparent
- Visual analysis of solubility ([5]; Diluent PBS): Precipitate
- Visual analysis of solubility ([5]; Media 4% LHB:CAMHB): Turbid
- Visual analysis of solubility ([5]; Media 10% horse serum-supplemented broth): Precipitate
- M + R [6]: 2.375 µg/mL
- MIC [7]: 2 µg/mL (≈ 5.98 µM)
- NCL812 MBC test, growth on Sheep Blood Agar ([8]; S. aureus (KC01), 2 μg/ml): +
- NCL812 MBC test, growth on Sheep Blood Agar ([8]; S. aureus (KC01), 4 μg/ml): + and 0
- NCL812 MBC test, growth on Sheep Blood Agar ([8]; S. aureus (KC01), 8 μg/ml): + and 0
- NCL812 MBC test, growth on Sheep Blood Agar ([8]; S. aureus (KC01), 16 μg/ml): 0
- NCL812 MBC test, growth on Sheep Blood Agar ([8]; S. aureus (KC01), 32 μg/ml): 0
- NCL812 MBC test, growth on Sheep Blood Agar ([8]; S. aureus (KC01), 64 μg/ml): 0
- NCL812 MBC test, growth on Sheep Blood Agar ([8]; S. aureus (KC01), […]): 0
- NCL812 MBC test, growth on Sheep Blood Agar ([8]; S. aureus (MK01), 2 μg/ml): 0
- Number of Bacteria Growing after 24 hours per ml of sample ([8]; S. aureus (MK01), 2 μg/ml): 5 CFU/ml
- NCL812 MBC test, growth on Sheep Blood Agar ([8]; S. aureus (MK01), 4 μg/ml): 0
- NCL812 MBC test, growth on Sheep Blood Agar ([8]; S. aureus (MK01), 8 μg/ml): 0
- NCL812 MBC test, growth on Sheep Blood Agar ([8]; S. aureus (MK01), 16 μg/ml): 0 (N) and 0
- NCL812 MBC test, growth on Sheep Blood Agar ([8]; S. aureus (MK01), 32 μg/ml): 0 (N) and 0
- NCL812 MBC test, growth on Sheep Blood Agar ([8]; S. aureus (MK01), 64 μg/ml): 0 (N) and 0
- MBC test outcome ([8]; S. aureus MK01 and KC01, no growth, or growth only at 2 μg/ml): bactericidal
- reduction in bacterial numbers from initial numbers ([9]; 2 h): ≥ 2.5 log10
- reduction in comparison to the control at the same time point ([9]; 2 h): > 3 log10
- reduction in bacterial numbers ([9]; 6 h incubation): ≥ 2 log10
- numbers of bacteria versus control ([9]; after 24 h): not significantly different to the control
- rise in bacterial numbers ([10]; 32 and 64 μg/mL, until the 6 h time point): ~1 log10
- reduction in CFU/mL compared to the growth control ([10]; 2 h): 2 log10
- reduction in CFU/mL compared to the original bacterial numbers ([10]; 2 h): greater than 1 log10
- bacterial numbers versus growth control ([10]; at 24 h, all concentrations): increased to almost the same level as the growth control

— patent publication US10253002B2, “Compounds and methods of treating infections” (Neoculi Pty Ltd., priority 2013, dated 2019)
